Experiments:
fertilized broiler eggs = assay: In ovo NR injection at 11 days of incubation: chick weight and Pectoralis major measurements (Example 1); assay type: in vivo, chicken
Procedure: At 11-days of incubation, 60 fertilized broiler eggs were randomly assigned to completely randomized design with a 2×2 factorial arrangement. Factor 1 comprised treatment, with eggs injected with 100 μl of 0.9% sterile saline solution (NRNeg) or 250 mM NR in sterile saline (NRPos). Factor 2 comprised injection location, with treatments injected into the yolk or albumen. Eggs were incubated at 37±3° C. and a relative humidity of 40±2% for 7 days. Humidity was increased to 60±2% at the same temperature for the final 3 days of incubation. Twenty-four hours after hatching, chicks were euthanized by exposure to CO2 and decapitation. Measurements including chick weight and left Pectoralis major weight, length, and depth were taken for analysis.

[1] = system: Fertilized Cobb 500 broiler eggs; assay: Pectoralis major NAD+ quantification, NAD/NADH assay kit (second Example VI); assay type: in vivo, chicken; conditions: hatched chicks
Procedure: Nicotinamide adenine dinucleotide content of the right PMM was quantified using a commercial NAD/NADH assay kit (Abnova, Taipei, Taiwan). Twenty-milligram of PMM tissue was homogenized in a propriety NAD extraction buffer, heated at 60° C. for 5 min, and propriety assay and NADH buffers were added. Samples were centrifuged at 14,000 rpm for 5 min and the supernatant was used for analysis. Standards, samples, and working reagent [propriety assay buffer, enzymes, lactate, and 3-(4,5-dimethylthiazol-2-yl)-2,5-diphenyltetrazolium bromide] were loaded onto 96-well plates and absorbance was read at 565 nm at 0 and 15 min. The change in absorbance was used to calculate amount of NAD+.

finishing barrows = assay: Loin chop color stability, 8-day simulated retail display (Example IV); assay type: in vivo, pig; conditions: NR 30 mg/kg, 10 days
Procedure: Seven days prior to the beginning of the experiment, 10 finishing barrows (initial BW 111.9±1.6 kg) were assigned to individual pens located at the East Finisher facility of the Kansas State University Swine Teaching and Research Center (Manhattan, Kans.). Each pen was 7.4 m^2 with a slatted floor, contained a nipple waterer and an individual dry feeder that allowed ad libitum access to food and water. Barrows were randomly assigned to 1 of 2 NR treatments, 0 or 30 mg/kg daily of NR mixed in Karo® syrup and administered by oral gavage. Barrows were administered their assigned treatment for 10 days, after which they were harvested under USDA inspection. Twenty-four hours after harvest, carcass measurements were taken by trained personnel, carcasses were fabricated into the 5 major wholesale cuts, and whole-boneless loins were vacuum packaged and aged for 10 days. Loin were cut into 3 chops with chop 1 being used for day-0 metmyoglobin reducing ability (MRA) analysis, chop 2 being used for day-4 MRA and oxygen consumption rate (OCR) analyses, and chop 3 for 8-day objective/subjective color evaluation and MRA and OCR analyses. There were no Treatment×Day interactions for all objective and subjective color measurements (P>0.77). Day of display affected all measures consistent with the discoloration of meat (P<0.02), except L* (lightness; 0=black and 100=white) value which was not affected (P=0.14; Table 5).

[2] = 100 μl 250 mM NR into yolk at 11 d, chicks 24 h after hatching
[3] = 8-day display, treatment effect not significant (P>0.19)

NC(=O)c1ccc[n+]([C@@H]2O[C@H](CO)[C@@H](O)[C@H]2O)c1 [Nicotinamide riboside, nicotinamide riboside]
Pectoralis major depth vs NRNeg (fertilized broiler eggs; 100 μl 250 mM NR at 11 d, treatment main effect (yolk and albumen)): thicker muscles | Chick weight and Pectoralis major weight and length vs NRNeg (fertilized broiler eggs; 100 μl 250 mM NR into albumen at 11 d, chicks 24 h after hatching): no differences | Chick weight vs NRNeg (fertilized broiler eggs; [2]): tended to weigh more | Pectoralis major length vs NRNeg (fertilized broiler eggs; [2]): longer | Pectoralis major weight vs NRNeg (fertilized broiler eggs; [2]): weighed more | NAD+ content of PMM vs the other 3 treatment groups ([1]; 1,000 mM NR): more NAD^+ | NAD+ content of PMM among 0, 250 and 500 mM groups ([1]; 250 and 500 mM NR): did not differ | Metmyoglobin reducing ability (MRA) vs control (finishing barrows; [3]): greater | Oxygen consumption rate (OCR) vs control (finishing barrows; [3]): greater | Loin chop L* (0 = black and 100 = white) (finishing barrows; display day 0): 64.4 | Loin chop a* (−60 = green and 60 = red) (finishing barrows; display day 0): 19.7 | Loin chop L* (0 = black and 100 = white) (finishing barrows; display day 1): 65.2 | Loin chop a* (−60 = green and 60 = red) (finishing barrows; display day 1): 18.8 | Loin chop L* (0 = black and 100 = white) (finishing barrows; display day 2): 63.7 | Loin chop a* (−60 = green and 60 = red) (finishing barrows; display day 2): 18.6 | Loin chop L* (0 = black and 100 = white) (finishing barrows; display day 3): 63.4 | Loin chop a* (−60 = green and 60 = red) (finishing barrows; display day 3): 17.8 | Loin chop L* (0 = black and 100 = white) (finishing barrows; display day 4): 63.1 | Loin chop a* (−60 = green and 60 = red) (finishing barrows; display day 4): 17.3 | Loin chop L* (0 = black and 100 = white) (finishing barrows; display day 5): 62.9 | Loin chop a* (−60 = green and 60 = red) (finishing barrows; display day 5): 16.3 | Loin chop L* (0 = black and 100 = white) (finishing barrows; display day 6): 62.7 | Loin chop a* (−60 = green and 60 = red) (finishing barrows; display day 6): 15.6 | Loin chop L* (0 = black and 100 = white) (finishing barrows; display day 7): 62.8 | Loin chop a* (−60 = green and 60 = red) (finishing barrows; display day 7): 15.1 | Loin chop L* (0 = black and 100 = white) (finishing barrows; display day 8): 62.8 | Loin chop a* (−60 = green and 60 = red) (finishing barrows; display day 8): 14.7 | Trained panelists loin chop discoloration vs control (finishing barrows; entire 8-day display period): less discoloration | Loin chop surface metmyoglobin vs control (finishing barrows; over the 8-day display period): less surface metmyoglobin formation | Loin chop surface oxymyoglobin vs control (finishing barrows; over the 8-day display period): greater surface oxymyoglobin
